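Where inhibition never reached the appropriate level, the endpoint shown equals the highest concentration tested. Otherwise, values were interpolated linearly from a five-concentration, 48-hour dose response in 96-well plates. GI50 is the concentration that inhibits growth by half.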 Activity calls are given as the source filed them. Rule as the data show it: active = GI50 up to about 1.1 µM and inactive = higher.
Columns and labels:
Assay in all cases: growth of human tumour cells (NCI), 48 h
[1] = test system: SF-295
[2] = test system: NCI-H460
[3] = test system: BT-549
[4] = test system: A498
[5] = test system: COLO 205
[6] = test system: A549
[7] = test system: SF-268
[8] = test system: UO-31
[9] = test system: OVCAR-3
[10] = test system: SN12C
[11] = test system: ACHN
[12] = test system: MDA-N
[13] = test system: HT-29
[14] = test system: HOP-62
[15] = test system: Malme-3M
[16] = test system: DU-145
[17] = test system: EKVX
[18] = test system: CCRF-CEM
[19] = test system: SR
[20] = test system: IGROV-1
[21] = test system: OVCAR-8
[22] = test system: 786-0
[23] = test system: RPMI-8226
[24] = test system: T47D
[25] = test system: OVCAR-4
[26] = test system: SK-MEL-28
[27] = test system: MDA-MB-231
[28] = test system: MCF7
[29] = test system: NCI-H522
[30] = test system: K562
[31] = test system: SF-539
[32] = test system: Hs-578T
[33] = test system: UACC-257
[34] = test system: UACC-62
[35] = test system: SK-OV-3
[36] = test system: NCI-H226
[37] = test system: LOX IMVI
[38] = test system: MDA-MB-435
[39] = test system: HCT-15
[40] = test system: HL-60
[41] = test system: OVCAR-5
[42] = test system: CAKI-1
[43] = test system: SNB-19
[44] = test system: KM12
[45] = test system: NCI-H23
[46] = test system: HCC 2998
[47] = test system: SW-620
[48] = test system: MOLT-4
[49] = test system: NCI/ADR-RES
[50] = test system: SNB-75
[51] = test system: TK-10
[52] = test system: SK-MEL-2
[53] = test system: M14
[54] = test system: U-251
[55] = test system: PC-3
[56] = test system: HCT-116

SMILES: COC(=O)C1(Cc2ccc3c(c2)CCC3)Cc2ccccc2C1
- GI50 [1]: 27.4 µM (inactive)
- GI50 [2]: 32.9 µM (inactive)
- GI50 [3]: 69.5 µM (inactive)
- GI50 [4]: 32.8 µM (inactive)
- GI50 [5]: 25 µM (inactive)
- GI50 [6]: 32.5 µM (inactive)
- GI50 [7]: 41.9 µM (inactive)
- GI50 [8]: 33.7 µM (inactive)
- GI50 [9]: 40.7 µM (inactive)
- GI50 [10]: 30.1 µM (inactive)
- GI50 [11]: 41.9 µM (inactive)
- GI50 [12]: 29.9 µM (inactive)
- GI50 [13]: 22.2 µM (inactive)
- GI50 [14]: 43.6 µM (inactive)
- GI50 [15]: 27.4 µM (inactive)
- GI50 [16]: 39.4 µM (inactive)
- GI50 [17]: 36.1 µM (inactive)
- GI50 [18]: 11.5 µM (inactive)
- GI50 [19]: 29.6 µM (inactive)
- GI50 [20]: 48.3 µM (inactive)
- GI50 [21]: 50.6 µM (inactive)
- GI50 [22]: 37.8 µM (inactive)
- GI50 [23]: 17.9 µM (inactive)
- GI50 [24]: 24.6 µM (inactive)
- GI50 [25]: 16.8 µM (inactive)
- GI50 [26]: 74.5 µM (inactive)
- GI50 [27]: 35.1 µM (inactive)
- GI50 [28]: 32.8 µM (inactive)
- GI50 [29]: 22.5 µM (inactive)
- GI50 [30]: 11.6 µM (inactive)
- GI50 [31]: 34.4 µM (inactive)
- GI50 [32]: 48.3 µM (inactive)
- GI50 [33]: 26.4 µM (inactive)
- GI50 [34]: 36.1 µM (inactive)
- GI50 [35]: 29.7 µM (inactive)
- GI50 [36]: 29.9 µM (inactive)
- GI50 [37]: 14.7 µM (inactive)
- GI50 [38]: 25.2 µM (inactive)
- GI50 [39]: 25.8 µM
- GI50 [40]: 17 µM (inactive)
- GI50 [41]: 39.3 µM (inactive)
- GI50 [42]: 36.2 µM (inactive)
- GI50 [43]: 48.5 µM (inactive)
- GI50 [44]: 37.2 µM (inactive)
- GI50 [45]: 34.7 µM (inactive)
- GI50 [46]: 32 µM (inactive)
- GI50 [47]: 21.9 µM (inactive)
- GI50 [48]: 6.73 µM (inactive)
- GI50 [49]: 44.1 µM (inactive)
- GI50 [50]: 55.7 µM (inactive)
- GI50 [51]: 82.8 µM (inactive)
- GI50 [52]: 25.9 µM (inactive)
- GI50 [53]: 39.7 µM (inactive)
- GI50 [54]: 42.3 µM (inactive)
- GI50 [55]: 16.1 µM (inactive)
- GI50 [56]: 26.9 µM (inactive)

Reference: ChEMBL document CHEMBL1201862, “PubChem BioAssay data set” (2004)
